Measured values taken from patent publication US4605670A, “Method for percutaneously administering metoclopramide” (priority 1984, dated 1986).
Where a name gives a salt, the structure may show the parent alone.

Type: in vitro ADME, male albino rats
Source text: Rat full thickness skins were used in the diffusion cell method of Michaels, AlChE Journal, 21 [5], 985-996, (1975). The rat skin was mounted in the diffusion cell in a vertical position between the upstream and the downstream compartments; the exposed area of the skin approximated 4.15 cm^2.
The skin was excised from the shaved abdominal site of male albino rats weighing 250~300 g, and washed with normal saline solution after the subcutaneous fat was carefully removed with scissors.
An MCP solution of known concentration was added to the upper compartment of the cell, which was exposed to the epithelial side of the skin and a normal saline solution was placed in the lower compartment.
The penetration rate was studied in a thermostated bath at 30° C. At appropriate intervals samples were withdrawn from the lower compartment and subsequently analyzed for MCP concentration by standard analytical methods. This regimen was used in Examples 1 to 10.
Unless otherwise indicated, in all of the examples, the active agent was MCP.HCl, the MCP.HCl flux is given in terms of ug/cm^2 /8hrs, 25 volume percent of the adjuvant with respect to the adjuvant plus solvent volume was used in combination with 2.5 weight percent of active agent based on the weight of the adjuvant plus solvent; otherwise, all percents are volume percents based on adjuvant, solvent or adjuvant plus solvent volume, depending on the system.
Compositions were typically prepared by merely mixing the adjuvant and solvent together, then mixing the MCP.HCl in the mixture and then, if used, mixing the diol therein. The order of mixing is not important.

Molecule	MCP HCl flux with increasing MCP HCl concentration	MCP.HCl Flux
CCN(CC)CCNC(=O)c1cc(Cl)c(N)cc1OC [MCP HCl, metoclopramide.HCl, reference compound]	Flux increases linearly with increasing drug concentration	–
Hydroxy ethyl cellulose	–	1296 ug/cm^2 /8 hrs
Hydroxy propyl cellulose	–	843 ug/cm^2 /8 hrs
